What follows are compounds tested against T1, human C5a receptor (Homo sapiens, UniProt P21730) (assay: standard assay of C5a receptor mediated calcium mobilization (Example 20)). Details: differentiated U937 cells, read-out: Ki < 1 μM.
T1 construct: endogenous in cells; host or cells: U937 cells differentiated with 1 mM dibutyryl cAMP
T1 sequence (P21730 1-350): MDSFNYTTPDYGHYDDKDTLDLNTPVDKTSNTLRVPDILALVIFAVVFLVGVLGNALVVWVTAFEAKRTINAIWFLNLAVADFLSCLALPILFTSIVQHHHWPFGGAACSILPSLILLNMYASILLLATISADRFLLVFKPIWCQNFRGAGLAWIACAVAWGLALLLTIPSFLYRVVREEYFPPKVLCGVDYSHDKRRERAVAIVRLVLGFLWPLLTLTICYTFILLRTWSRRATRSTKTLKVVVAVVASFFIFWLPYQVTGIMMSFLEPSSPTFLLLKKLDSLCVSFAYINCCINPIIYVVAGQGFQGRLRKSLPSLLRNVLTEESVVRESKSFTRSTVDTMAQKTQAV
Assay type: cell-based
Procedure: U937 cells are grown in differentiation media (1 mM dibutyrl cAMP in RPMI 1640 medium containing 10% fetal bovine serum) for 48 hours at 37° C. then reseeded onto 96-well plates suitable for use in a FLIPR™ Plate Reader (Molecular Devices Corp., Sunnyvale Calif.). Cells are grown an additional 24 hours (to 70-90% confluence) before the assay. The cells are then washed once with Krebs Ringer solution. FLUO-3 calcium sensitive dye (Molecular Probes, Inc. Eugene, Oreg.) is added to 10 μg/mL and incubated with the cells at room temperature for 1 to 2 hours. The 96 well plates are then washed to remove excess dye.
C. Assays for the Identification of Receptor Modulatory Agents: Antagonists and Agonists
Those of skill in the art will recognize that the calcium mobilization assay described above may be readily adapted for identifying test compounds as having agonist or antagonist activity, at the human C5a receptor.
For example, in order to identify antagonist compounds, differentiated U937 cells are washed and incubated with Fluo-3 dye as described above. One hour prior to measuring the fluorescence signal, a subset of the cells is incubated with a 1 uM concentration of at least one compound to be tested. The fluorescence response upon the subsequent addition of 0.3 nM (final concentration) human recombinant C5a is monitored using the FLIPR™ plate reader. Antagonist compounds elicit at least a 2-fold decrease in the fluorescence response relative to that measured in the presence of human C5a alone. Preferred antagonist compounds elicit at least a 5-fold, preferably at least a 10-fold, and more preferably at least a 20-fold decrease in the fluorescence response relative to that measured in the presence of human C5a alone.

Row | Compound | Ki
1 | CCCCn1c(CN(Cc2ccccc2)Cc2ccc3c(c2)OCO3)cnc1C1CCCCC1 [Compound 9, Benzo[1,3]dioxol-5-ylmethyl-benzyl(1-butyl-2-cyclohexyl-3H-imidazol-5-ylmethyl)-amine] | < 1000 nM
2 | CCCCn1c(CN(Cc2ccccc2)Cc2ccc3c(c2)OCCO3)cnc1C1CCCCC1 [Compound 10, Benzyl-(1-butyl-2-cyclohexyl-3H-imidazol-5-ylmethyl)-(2,3-dihydro-benzo[1,4]dioxin-6-ylmethyl)-amine] | < 1000 nM
3 | CCCCn1c(C2CC2)nc(-c2ccccc2)c1CN(Cc1ccc2c(c1)OCO2)Cc1ccc2c(c1)OCO2 [Compound 11, 1-(1,3-benzodioxol-5-yl)-N-(1,3-benzodioxol-5-ylmethyl)-N-[(1-butyl-2-cycloproyl-4-phenyl-1H-imidazol-5yl)methyl]methanamine] | < 1000 nM
4 | CCCCn1c(C2=CCCCC2)nc(-c2ccccc2)c1CN(Cc1ccc2c(c1)OCO2)Cc1ccc2c(c1)OCO2 [Compound 12, 1-(1,3-benzodioxol-5-yl)-N-(1,3-benzodioxol-5-ylmethyl)-N-[(1-butyl-2-cyclohex-1-en-1-yl-4-phenyl-1H-imidazol-5-yl)methyl]methanamine] | < 1000 nM
5 | CCCCn1c(C2CC=CCC2)nc(-c2ccccc2)c1CN(Cc1ccc2c(c1)OCO2)Cc1ccc2c(c1)OCO2 (centres unmarked) [Compound 13, 1-(1,3-benzodioxol-5-yl)-N-(1,3-benzodioxol-5-ylmethyl)-N-[(1-butyl-2-cyclohex-3-enyl-4-phenyl-1H-imidazol-5-yl)methyl]methanamine] | < 1000 nM
6 | CCCCn1c(N2CCOCC2)nc(Cl)c1CN(Cc1ccc(C(=O)OC)cc1)Cc1ccc2c(c1)OCCO2 [Compound 14, methyl 4-{[[(1-butyl-4-chloro-2-morpholin-4-yl-1H-imidazol-5-yl)methyl](2,3-dihydro-1,4-benzodioxin-6-ylmethyl)amino]methyl}benzoate] | < 1000 nM
7 | CCCCn1c(N2CCOCC2)nc(Cl)c1CN(Cc1ccc(C(=O)O)cc1)Cc1ccc2c(c1)OCCO2 [Compound 15, 4-{[[(1-butyl-4-chloro-2-morpholin-4-yl-1H-imidazol-5-yl)methyl](2,3-dihydro-1,4-benzodioxin-6-ylmethyl)amino]methyl}benzoic acid] | < 1000 nM
8 | CCCCN(Cc1c(Cl)nc(N2CCOCC2)n1CCCC)C(C)c1ccc2c(c1)OCCO2 (centres unmarked) [Compound 19, N-[(1-butyl-4-chloro-2-morpholin-4-yl-1H-imidazol-5-yl)methyl]-N-[1-(2,3-dihydro-1,4-benzodioxin-6-yl)ethyl]butan-1-amine] | < 1000 nM
9 | CCCCn1c(N2CCCCC2)nc(Cl)c1CN(Cc1cccc(OCC)c1)Cc1ccc2c(c1)OCCO2 [Compound 21, 1-(1-butyl-4-chloro-2-piperidin-1-yl-1H-imidazol-5-yl)-N-(2,3-dihydro-1,4-benzodioxin-6-ylmethyl)-N-(3-ethoxybenzyl)methanamine] | < 1000 nM

Now from value to compound:

Row | Ki | Compound
10 | < 1000 nM | CCCCN(Cc1ccc2[nH]ccc2c1)Cc1c(Cl)nc(N2CCOCC2)n1CCCC [Compound 16, N-[(1-butyl-4-chloro-2-morpholin-4-yl-1H-imidazol-5-yl)methyl]-N-(1H-indol-5-ylmethyl)butan-1-amine]
11 | < 1000 nM | CCCCN(Cc1ccc2c(c1)OCCO2)Cc1c(Cl)nc(N2CCOCC2)n1CCCC [Compound 17, N-[(1-butyl-4-chloro-2-morpholin-4-yl-1H-imidazol-5-yl)methyl]-N-(2,3-dihydro-1,4-benzodioxin-6-ylmethyl)butan-1-amine]
12 | < 1000 nM | CCCCn1c(N2CCOCC2)nc(Cl)c1CN(CCC(C)C)Cc1ccc2c(c1)OCCO2 [Compound 18, N-[(1-butyl-4-chloro-2-morpholin-4-yl-1H-imidazol-5-yl)methyl]-N-(2,3-dihydro-1,4-benzodioxin-6-ylmethyl)-3-methylbutan-1-amine]
13 | < 1000 nM | CCCCn1c(N2CCOCC2)nc(Cl)c1CN(CCC(C)C)C(C)c1ccc2c(c1)OCCO2 (centres unmarked) [Compound 20, N-{(1-butyl-4-chloro-2-morpholin-4-yl-1H-imidazol-5-yl)methyl]-N-[1-(2,3-dihydro-1,4-benzodioxin-6-yl)ethyl]-3-methylbutan-1-amine]
14 | < 1000 nM | CCCCn1c(N2CCOCC2)nc(Cl)c1CN(CCC(C)C)Cc1ccc2c(c1)CCCN2 [Compound 22]

Source: patent US8007767B2, “Amino methyl imidazoles and related compounds as C5a receptor modulators” (Novartis International Pharmaceutical Ltd., priority 2002, dated 2011)
